Measured values reported in patent US8450298B2, “Aminoalcohol lipidoids and uses thereof” (Massachusetts Institute of Technology, priority 2008, dated 2013).

System: Factor VII
Assay: In vivo Factor VII knockdown with anti-Factor VII siRNA in lipidoid formulations
Conditions: mice, 0.01 mg/kg siRNA dosing
Protocol: C57BL/6 mice (Charles River Labs) received either saline or siRNA in lipidoid formulations via tail vein injection at a volume of 0.01 ml/g. […] At 48 hours after administration, animals were anesthetized by isofluorane inhalation and blood was collected into serum separator tubes by retroorbital bleed. Serum levels of Factor VII protein were determined in samples using a chromogenic assay (Biophen FVII, Aniara Corporation) according to the manufacturer's protocols. A standard curve was generated using serum collected from saline-treated animals. Exemplary results are depicted in FIG. 7.
To test siRNA delivery efficacy in vivo, a mouse model for liver delivery was used. […] Once produced by hepatocytes, Factor VII is released into the bloodstream, and a baseline level of expression can be determined by simple blood draw and quantification of protein levels by colorimetric assay. By delivering anti-Factor VII siRNA to hepatocytes, knockdown of this model protein can be achieved and a percentage of silencing can be determined by comparison to an untreated control. […]
Following the initial in vivo screening experiments, two compounds were used to conduct a dose response. […] In addition to Factor VII measurement, the change in mouse body weight is recorded and a loss in weight is generally considered formulation induced toxicity (See FIG. 13b and FIG. 14b). […]

| SMILES | reduction of systemic Factor VII (preliminary) | difference between Factor VII results of racemic C12-200 and those of the R or S forms |
| --- | --- | --- |
| CCCCCCCCCC[C@@H](O)CN(CCN1CCN(CCN(C[C@H](O)CCCCCCCCCC)C[C@H](O)CCCCCCCCCC)CC1)CCN(C[C@H](O)CCCCCCCCCC)C[C@H](O)CCCCCCCCCC [(R)-C12-200] | approximately 50% | – |
| CCCCCCCCCCC(O)CN(CCN1CCN(CCN(CC(O)CCCCCCCCCC)CC(O)CCCCCCCCCC)CC1)CCN(CC(O)CCCCCCCCCC)CC(O)CCCCCCCCCC (centres unmarked) [C12-200] | – | insignificant |
